From ChEMBL document CHEMBL3137667, “[Drug-induced liver injury; fourteenth updated edition of the bibliographic database of liver injuries and related drugs]” (Gastroenterol Clin Biol, 2004)

How the values were obtained:
[1] = human
[2] = human, serum
[3] = human; remark: listed apart in the source
[4] = human, serum; remark: listed apart in the source
[5] = Highest frequency of moderate liver toxicity observed during clinical trials, expressed as a percentage. [column '% BIOL' in source]; conditions: human
[6] = human; remark: listed apart in the source
[7] = human, serum, 4383 h
[8] = human; remark: listed apart in the source
[9] = human; remark: listed apart in the source
[10] = human; remark: listed apart in the source
[11] = Highest frequency of acute liver toxicity observed during clinical trials, expressed as a percentage. [column '% AIGUE' in source]; conditions: human
[12] = human; remark: listed apart in the source
[13] = human; remark: listed apart in the source
[14] = human; remark: listed apart in the source
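For Hepatotoxicity (association with vascular disease) in this document: count of indexed literature references reporting vascular liver injury in humans, e.g. peliosis hepatitis, hepatic veno-occlusive disease or Budd-Chiari syndrome.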
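For Hepatotoxicity (benign tumour) in this document: value is a count of indexed literature references citing a benign tumour confirmed by histopathology.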
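For Hepatotoxicity (choleostasis) in this document: human cholestatic liver injury, shown by histopathology or by peak ALT or AST elevation over alkaline phosphatase ratio below 2, value counts indexed literature reports.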
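For Hepatotoxicity (chronic liver disease) in this document: chronic liver injury confirmed by histopathology or persistently raised serum aminotransferase activity beyond 6 months, value given as the count of indexed literature references.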
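For Hepatotoxicity (cirrhosis) in this document: value is a count of indexed literature references reporting cirrhosis confirmed by histopathology.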
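For Hepatotoxicity (cytolytic) in this document: human cytolytic liver injury, shown by histopathology or by a ratio above 5 of peak ALT or AST elevation to alkaline phosphatase elevation, value counts indexed references.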
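For Hepatotoxicity (granulomatous hepatitis) in this document: value is a count of indexed literature references reporting granulomatous liver disease confirmed by histopathology.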
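For Hepatotoxicity (malignant tumour) in this document: malignant tumour confirmed by histopathology, value gives the count of indexed literature references reporting it.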
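For Hepatotoxicity (severe hepatitis) in this document: human clinical data: severe hepatitis, meaning potentially life-threatening liver failure or clinically observed cases, the value counts how many indexed literature references report it.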
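For Hepatotoxicity (steatosis) in this document: steatosis confirmed by histopathology, value is the count of indexed references.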

## CNC(=O)C[C@@H](N)C(=O)N[C@@H](C(=O)N[C@@H]1C(=O)N2[C@@H]1SC(C)(C)[C@@H]2C(=O)O)c1ccc(O)cc1 [ASPOXICILLIN]
[1]
  Hepatotoxicity (steatosis): 0
[2]
  Hepatotoxicity (acute): 0
[3]
  Hepatotoxicity (choleostasis): 0
[4]
  Hepatotoxicity (moderate): 20
[5]
  Hepatotoxicity (moderate): 40%
[6]
  Hepatotoxicity (severe hepatitis): 0
[7]
  Hepatotoxicity (chronic liver disease): 0
[8]
  Hepatotoxicity (association with vascular disease): 0
[9]
  Hepatotoxicity (cytolytic): 0
[10]
  Hepatotoxicity (benign tumour): 0
[11]
  Hepatotoxicity (acute): 0%
[12]
  Hepatotoxicity (malignant tumour): 0
[13]
  Hepatotoxicity (cirrhosis): 0
[14]
  Hepatotoxicity (granulomatous hepatitis): 0

## CO[C@H]1[C@@H](O)[C@H](N)[C@@H](O[C@H]2O[C@H]([C@H](C)N)CC[C@H]2N)[C@H](O)[C@@H]1N(C)C(=O)CN [ASTROMICIN]
[1]
  Hepatotoxicity (steatosis): 0
[2]
  Hepatotoxicity (acute): 0
[3]
  Hepatotoxicity (choleostasis): 0
[4]
  Hepatotoxicity (moderate): 1
[5]
  Hepatotoxicity (moderate): 7.3%
[6]
  Hepatotoxicity (severe hepatitis): 0
[7]
  Hepatotoxicity (chronic liver disease): 0
[8]
  Hepatotoxicity (association with vascular disease): 0
[9]
  Hepatotoxicity (cytolytic): 0
[10]
  Hepatotoxicity (benign tumour): 0
[11]
  Hepatotoxicity (acute): 0%
[12]
  Hepatotoxicity (malignant tumour): 0
[13]
  Hepatotoxicity (cirrhosis): 0
[14]
  Hepatotoxicity (granulomatous hepatitis): 0

## CNC(=O)c1cccc2c(Nc3ccc(NS(C)(=O)=O)cc3OC)c3cccc(C)c3nc12 [ASULACRINE]
[1]
  Hepatotoxicity (steatosis): 0
[2]
  Hepatotoxicity (acute): 0
[3]
  Hepatotoxicity (choleostasis): 0
[4]
  Hepatotoxicity (moderate): 2
[5]
  Hepatotoxicity (moderate): 17%
[6]
  Hepatotoxicity (severe hepatitis): 0
[7]
  Hepatotoxicity (chronic liver disease): 0
[8]
  Hepatotoxicity (association with vascular disease): 0
[9]
  Hepatotoxicity (cytolytic): 0
[10]
  Hepatotoxicity (benign tumour): 0
[11]
  Hepatotoxicity (acute): 0%
[12]
  Hepatotoxicity (malignant tumour): 0
[13]
  Hepatotoxicity (cirrhosis): 0
[14]
  Hepatotoxicity (granulomatous hepatitis): 0

## CC1(C)S[C@@H]2[C@H](NC(=O)[C@H](NC(=O)N3CCNC3=O)c3ccccc3)C(=O)N2[C@H]1C(=O)O [AZLOCILLIN]
[1]
  Hepatotoxicity (steatosis): 0
[2]
  Hepatotoxicity (acute): 0
[3]
  Hepatotoxicity (choleostasis): 0
[4]
  Hepatotoxicity (moderate): 3
[5]
  Hepatotoxicity (moderate): 11.1%
[6]
  Hepatotoxicity (severe hepatitis): 0
[7]
  Hepatotoxicity (chronic liver disease): 0
[8]
  Hepatotoxicity (association with vascular disease): 0
[9]
  Hepatotoxicity (cytolytic): 0
[10]
  Hepatotoxicity (benign tumour): 0
[11]
  Hepatotoxicity (acute): 0%
[12]
  Hepatotoxicity (malignant tumour): 0
[13]
  Hepatotoxicity (cirrhosis): 0
[14]
  Hepatotoxicity (granulomatous hepatitis): 0

## CCOC(=O)OC(C)OC(=O)[C@@H]1N2C(=O)[C@@H](NC(=O)[C@H](N)c3ccccc3)[C@H]2SC1(C)C (some centres undefined) [BACAMPICILLIN]
[1]
  Hepatotoxicity (steatosis): 0
[2]
  Hepatotoxicity (acute): 0
[3]
  Hepatotoxicity (choleostasis): 0
[4]
  Hepatotoxicity (moderate): 2
[5]
  Hepatotoxicity (moderate): 0%
[6]
  Hepatotoxicity (severe hepatitis): 0
[7]
  Hepatotoxicity (chronic liver disease): 0
[8]
  Hepatotoxicity (association with vascular disease): 0
[9]
  Hepatotoxicity (cytolytic): 0
[10]
  Hepatotoxicity (benign tumour): 0
[11]
  Hepatotoxicity (acute): 0%
[12]
  Hepatotoxicity (malignant tumour): 0
[13]
  Hepatotoxicity (cirrhosis): 0
[14]
  Hepatotoxicity (granulomatous hepatitis): 0

## CCOC(=O)OC(C)OC(=O)[C@@H]1N2C(=O)[C@@H](/N=C/N3CCCCCC3)[C@H]2SC1(C)C (some centres undefined) [BACMECILLINAM]
[1]
  Hepatotoxicity (steatosis): 0
[2]
  Hepatotoxicity (acute): 0
[3]
  Hepatotoxicity (choleostasis): 0
[4]
  Hepatotoxicity (moderate): 3
[5]
  Hepatotoxicity (moderate): 1.8%
[6]
  Hepatotoxicity (severe hepatitis): 0
[7]
  Hepatotoxicity (chronic liver disease): 0
[8]
  Hepatotoxicity (association with vascular disease): 0
[9]
  Hepatotoxicity (cytolytic): 0
[10]
  Hepatotoxicity (benign tumour): 0
[11]
  Hepatotoxicity (acute): 0%
[12]
  Hepatotoxicity (malignant tumour): 0
[13]
  Hepatotoxicity (cirrhosis): 0
[14]
  Hepatotoxicity (granulomatous hepatitis): 0
